Source: patent publication US20060025458A1, “Alkylammonium compounds as antifungal and antitrypanosomal agents” (University of Connecticut, priority 2004, published 2006)
Where two headings read alike, the source gives them in different places.

How the values were obtained:
[1] = system: S. cerevisiae; assay: Liquid growth inhibition assay of S. cerevisiae (OD600); format: cell-based, Saccharomyces cerevisiae; details: for Inhibition of S. cerevisiae growth (in words): structure-activity comparison, Examples 2-4
Procedure: Strains and Growth Conditions: Wild-type (BY4741: Mata his3Δ1 leu2Δ0 met15Δ0 ura3Δ0) and mutant (hnm1Δ, psd1Δ, cki1Δ, pem1Δ, ept1Δ, cpt1Δ, eki1Δ, psd2Δ, pct1Δ, ect1Δ, pem2Δ) S. cerevisiae strains used in this study were purchased from Research Genetics (Invitrogen, USA). These strains were grown on YPD (1% yeast extract, 2% dextrose and 2% peptone) or synthetic complete medium (SD, 1.7% yeast nitrogen base, 5% ammonium sulfate and 2% dextrose). The Nigerian strain of P. falciparum was propagated in human red blood cells at 4% hematocrit by the method of Trager and Jensen (1976). Plate growth assays were performed by growing wild-type and mutant yeast strains in YPD to mid-log phase. Cultures were serially diluted 1:10 starting with a density of 3×10^7 cells/ml. The growth of cells was monitored by spotting 3 μl of each dilution onto solid medium in the absence or presence of 5 μM of G25.
Twenty-one analogs including first, second and third generation (E2a, E6, E9, E13, E24, F4, G2, G4, G5, G14, GI5, G25, H5, L1, L4, M34, M53, MS1, T3 and T4) compounds (provided by Dr. Henri Vial, City, Country) were tested (FIG. 4). The choice of the compounds was such that they represent all possible structural features introduced during the optimization process for enhancing antimalarial activity as determined using the combinatorial chemistry techniques.
The antimalarial drug G25 inhibits the growth of Saccharomyces cerevisiae. […] Growth inhibition was assessed by measuring the OD600 and comparing it to that of the wild-type strain grown under the same conditions in the absence of the compound. […] This IC50 value is in the range of the predicted intracellular concentration of G25 in P. falciparum due to the accumulative properties inside the infected erythrocytes.

[2] = system: promastigote form of L. major; assay: Growth inhibition of Leishmania major promastigotes; format: cell-based; details: read-out: IC50 of choline analogs in Leishmania major, WT
Procedure: For those drugs, IC50 values were determined.

[3] = system: choline transport in the wild-type strain of S. cerevisiae; assay: [methyl-3H]-choline uptake in wild-type S. cerevisiae; format: cell-based, Saccharomyces cerevisiae; details: 20-fold excess over [methyl-3H]-choline
Procedure: (§1) Uptake Assays: Yeast strains were grown in synthetic complete medium supplemented as required to maintain cell growth to an optical density of 0.55-0.65 at 600 nm. Cells were harvested by centrifugation at 3,200×g for 10 min at 4° C., washed twice in cold PBS and resuspended in nitrogen-free medium (SD without ammonium sulfate). […] After 3 min incubation at 30° C. with shaking, transport was immediately stopped by filtration through Whatman GF/C glass microfiber paper. The filters were washed three times with 5 ml ice-cold PBS, air dried, and analyzed in a scintillation counter. For time course uptake, 3-4×10^7 cells were incubated at 30° C. in 1 ml of nitrogen-free medium in the presence of 25 nM [^3H]-T16 (69 Ci/mmol) for different time periods (1, 2, 3, 4, 5, 7, 10 and 15 min) after which 5 ml of cold PBS was added to stop the reaction. Kinetic parameters were determined after 4 min of incubation at 30° C. in the presence of [^3H]-T16 at concentrations ranging from 25 nM to 75 μM (69 Ci - 23 mCi/mol). The samples were centrifuged at 4° C. for 10 min at 1,200×g, the supernatants were discarded and the cells were then resuspended in 5 ml of cold PBS. The reaction was terminated by filtering the cell suspension through GF/C membranes that were pretreated with 15 ml of 0.05% polyethyleneimine (PEI). The filters were washed twice with 5 ml of cold PBS, air dried, and analyzed in a scintillation counter. The cellular accumulation ratio (CAR) was calculated as previously described for T16 and G25 (Biagini, et al., 2003; Wengelnik, et al., 2002).

[4] = system: wild-type S. cerevisiae
Procedure: as §1

[5] = system: hnm1Δ S. cerevisiae strain lacking the choline transporter gene HNM1; assay: [3H]-T16 transport in hnm1 deletion strain; format: cell-based, Saccharomyces cerevisiae; details: 4 min, 30° C.
Procedure: as §1, with “The samples were centrifuged at 4° C. for 10 min at 1,200×g, the supernatants were discarded and the cells were then resuspended in 5 ml of cold PBS. The reaction was terminated by filtering the cell suspension through GF/C membranes that were pretreated with 15 ml of 0.05% polyethyleneimine (PEI).” left out

[6] = system: P. falciparum; assay: P. falciparum growth in vitro (antimalarial activity); format: cell-based, Plasmodium falciparum; details: predicted by QSAR and confirmed experimentally; read-out: IC50, in vitro anti-malarial activity
[7] = system: P. falciparum-infected erythrocytes; details: after 3 h incubation; cited from earlier work
[8] = system: P. falciparum; details: Ancelin and Vial, 1986; read-out: IC50, lethal to P. falciparum in vitro; cited from earlier work
[9] = cited from earlier work
[10] = system: C. albicans strain BWP17; assay: Growth inhibition of C. albicans in vitro; format: cell-based, Candida albicans; details: read-out: IC50, C. albicans proliferation
Procedure: G15, E24 and C35 inhibited at higher concentrations (>10 μM).

Which results are given for `CCCCCCCCCCCC[N+](CCC)(CCC)CCC.[Br-]` [E13]?
Inhibition of S. cerevisiae growth (in words) [1]: no improvement; IC50 [2]: 0.35 µM

With `CCCCCCCCCCCC[N+]1(C)CCCC1.[Br-]` [E24] as the molecule, how does the IC50 [2] read?
The IC50 was 0.7 µM.

With `CCCCCCCCCCCC[N+](C)(C)CCO` [F4] as the molecule, how does the IC50 [2] read?
Its IC50 is 4.1 µM.

Which IC50 ([1]; wild-type strain BY4741, 1×10^4 cells/ml, liquid medium, 30° C., 16 h, read-out: IC50, inhibition of yeast growth) does the source give for `CCc1sc[n+](CCCCCCCCCCCC[n+]2csc(CC)c2C)c1C.[I-].[I-]` [T16, 1, 12-dodecanemethylene bis[4-methyl-5-ethylthiazolium]diiodide] here?
Its IC50 is ~4 µM.

What about the “inhibition of choline transport” value [3] of the same molecule?
Its value is 26%.

And the “cellular accumulation ratio (CAR) in yeast” value [4]?
Its value is “less than 7”.

What about the Km ([4]; read-out: apparent Km of transport, wild-type, 4 min, 30° C., Lineweaver-Burk) of the same molecule?
Its Km is 5.05 ± 0.26 µM.

What about the “time during which uptake was linear” value ([4]; wild-type, 30° C., 25 nM) of the same molecule?
Its value is 12 min.

What about the “maximum velocity Vmax of transport” value ([4]; wild-type, 4 min, 30° C.) of the same molecule?
Its value is 0.98±0.48 pmol/min×10^7 cells.

What about the Km [5] of the same molecule?
The Km was 7.45 ± 1.98 µM.

What about the Vmax of transport [5] of the same molecule?
Its Vmax of transport is 0.76±0.21 pmol/min/10^7 cells.

And the IC50 [6]?
The IC50 was ~0.016 µM.

What about the “cellular accumulation ratio (CAR)” value [7] of the same molecule?
Its value is ~500.

With `C[N+](C)(C)CCCCCCCCCC[N+](C)(C)C` [DMA, decamethonium] as the molecule, how does the IC50 [8] read?
Its IC50 is 1 µM.

Which half-life ([9]; IV infusion) does the source give for Amphotericin B here?
Its half-life is “about 2 weeks”.

And the “renal impairment, share of patients” value ([9]; patients)?
Its value is 80%.

For `C[N+]1(C)CCOC(O)(c2ccc(-c3ccc(C4(O)C[N+](C)(C)CCO4)cc3)cc2)C1` (centres unmarked) [HC3, hemicholinium 3], which IC50 [8] is on record?
The IC50 was 4 µM.

Which “Inhibition of S. cerevisiae growth (in words)” value [1] does the source give for `CCCCCCCCCCCC[N+](C)(C)C.[Br-]` [E6] here?
The value was “not an effective drug”.

And the “IC50, growth of S. cerevisiae” value ([1]; wild-type W303 and BY4741, 10^5 cells/ml, YPD, 30° C., 24 h)?
Its value is “high μM range”.

What about the IC50 [2] of the same molecule?
Its IC50 is 2.15 µM.

For `CCCCCCCCCC[N+](C)(C)C` [DTMA, decyltrimethylammonium], which IC50 [8] is on record?
The IC50 was 0.7 µM.

Which results are given for `C[N+](C)(CCO)CCCCCCCCCCCCCCCC[N+](C)(C)CCO.[Br-].[Br-]` [H5]?
Inhibition of S. cerevisiae growth (in words) [1]: better efficacy; IC50 [10]: ~5 µM

With `N=C(N)CCCCCCCCCCCCC(=N)N` [M34] as the molecule, how does the IC50 [2] read?
Its IC50 is 3.57 µM.

Which “Inhibition of S. cerevisiae growth (in words)” value [1] does the source give for `CCCCCCCCCCCCCCCCCC[N+](C)(C)C.[Cl-]` [E9] here?
Its value is “inhibited”.

What about the IC50 ([1]; wild-type W303 and BY4741, 10^5 cells/ml, YPD, 30° C., 24 h, read-out: IC50, growth of S. cerevisiae) of the same molecule?
The IC50 was 0.25 to 0.5 µM.

What about the IC50 [10] of the same molecule?
The IC50 was ~1 µM.

And the IC50 [2]?
The IC50 was 0.11 µM.
